In this experiment the target is T1, Kv10.1 (Eag1) (Homo sapiens, UniProt O95259).
T1 construct: gene KCNH1
T1 sequence (O95259 1-989): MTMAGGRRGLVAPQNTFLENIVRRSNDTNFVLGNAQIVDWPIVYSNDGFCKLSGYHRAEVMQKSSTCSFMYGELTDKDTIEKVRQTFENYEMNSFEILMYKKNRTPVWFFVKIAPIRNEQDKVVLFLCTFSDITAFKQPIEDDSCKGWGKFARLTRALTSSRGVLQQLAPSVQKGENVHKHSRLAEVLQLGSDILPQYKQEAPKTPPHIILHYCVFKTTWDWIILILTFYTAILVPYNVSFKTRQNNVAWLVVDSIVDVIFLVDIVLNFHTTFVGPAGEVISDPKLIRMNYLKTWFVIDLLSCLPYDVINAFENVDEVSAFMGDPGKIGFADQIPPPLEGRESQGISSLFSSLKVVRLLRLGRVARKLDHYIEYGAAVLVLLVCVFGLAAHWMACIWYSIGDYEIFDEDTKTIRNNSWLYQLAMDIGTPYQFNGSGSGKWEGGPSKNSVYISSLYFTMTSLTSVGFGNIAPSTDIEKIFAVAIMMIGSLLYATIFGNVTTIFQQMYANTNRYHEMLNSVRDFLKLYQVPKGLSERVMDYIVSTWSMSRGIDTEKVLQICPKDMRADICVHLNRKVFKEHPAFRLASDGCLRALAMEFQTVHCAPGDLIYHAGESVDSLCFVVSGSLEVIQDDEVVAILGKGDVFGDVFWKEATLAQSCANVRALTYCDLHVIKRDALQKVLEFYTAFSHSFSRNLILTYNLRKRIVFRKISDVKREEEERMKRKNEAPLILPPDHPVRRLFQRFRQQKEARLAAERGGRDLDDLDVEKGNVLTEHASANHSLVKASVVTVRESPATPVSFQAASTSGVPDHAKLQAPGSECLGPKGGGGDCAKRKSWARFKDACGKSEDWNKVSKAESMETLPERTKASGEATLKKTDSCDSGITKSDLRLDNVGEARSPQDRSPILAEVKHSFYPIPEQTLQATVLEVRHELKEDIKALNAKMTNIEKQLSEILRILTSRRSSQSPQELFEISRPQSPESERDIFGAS
Nature of the experiment: patch-clamp electrophysiology of HEK293 cells stably expressing Kv10.[…]; dose-response at +[…] mV. The experiment is classed as cell-based. In general terms: Patch clamp records ionic current or voltage across a cell membrane.

Structures are written as SMILES. pKd: −log10 of the molar value.

By pKd is commonly meant −log10 of the Kd, conventionally taken in molar units. A higher pKd goes with a small Kd.

In turn, `CCCCc1oc2ccccc2c1C(=O)c1cc(I)c(OCCNCC)c(I)c1` [desAd, desethylamiodarone] gave a pKd of 5.92.

Source of the values: article PMC10847070, “State-independent inhibition of the oncogenic Kv10.1 channel by desethylamiodarone, a comparison with amiodarone” (Pflugers Archiv, 2023).
